Source: patent publication US20070213394A1 (priority 2004, published 2007)
Read-outs that look alike come from different tables or passages of the source.

Assays:
[1] = biological target: T1, human kappa opioid receptor (Homo sapiens, UniProt P41145); assay: biochemical; assay type: binding
T1 construct: expressed in transfected cells; host or cells: Chinese hamster ovary cells (CHO-hKOR), membranes

[2] = biological target: T1, human kappa opioid receptor; assay: biochemical; settings: for Emax: 1 h, read-out: Efficacy

T1 sequence (P41145 whole entry): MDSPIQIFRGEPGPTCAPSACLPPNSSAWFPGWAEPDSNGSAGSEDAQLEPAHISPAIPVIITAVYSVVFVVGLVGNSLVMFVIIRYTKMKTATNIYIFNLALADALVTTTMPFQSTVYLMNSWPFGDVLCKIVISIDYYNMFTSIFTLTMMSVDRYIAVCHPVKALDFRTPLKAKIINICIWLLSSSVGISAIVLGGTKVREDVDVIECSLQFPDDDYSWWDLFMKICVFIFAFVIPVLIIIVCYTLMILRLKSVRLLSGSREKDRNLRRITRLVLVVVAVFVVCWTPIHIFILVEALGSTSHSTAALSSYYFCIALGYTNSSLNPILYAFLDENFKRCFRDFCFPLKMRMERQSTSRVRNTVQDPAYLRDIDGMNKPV

Molecule	Ki [1] [µM]	other results
2-(N,N-dimethylamino)-salvinorin [Compound 19]	–	Ki ([1]; read-out: Ki): 0.0909 ± 0.0025 µM; EC50 ([2]; read-out: EC50): 0.343 ± 0.012 µM
8-epi-O-demethyl-18-deoxysalvinorin A [C8-epi-compound 222]	–	Ki ([1]; read-out: Ki): 1 ± 0.269 µM
CNC(=O)C1CC(OC(C)=O)C(=O)C2C1(C)CCC1C(=O)OC(c3ccoc3)CC12C (stereo not drawn) [C8-epi-compound 219, 8-epi-C(4)-N-methylamide salvinorin A]	–	Ki ([1]; read-out: Ki): 1.39 ± 0.218 µM
CNCC1CC(OC(C)=O)C(=O)C2C1(C)CCC1C(=O)OC(c3ccoc3)CC12C (stereo not drawn) [C8-epi-compound 224, 8-epi-4-(N-methylamino)methyl salvinorin A]	–	Ki ([1]; read-out: Ki): > 10 µM
CCNCC1CC(OC(C)=O)C(=O)C2C1(C)CCC1C(=O)OC(c3ccoc3)CC12C (stereo not drawn) [C8-epi-compound 225, 8-epi-4-(N-ethylamino)methyl salvinorin A]	–	Ki ([1]; read-out: Ki): > 10 µM
CC(=O)OC1CC(CN(C)C)C2(C)CCC3C(=O)OC(c4ccoc4)CC3(C)C2C1=O (stereo not drawn) [C8-epi-compound 226, 8-epi-4-(N,N-dimethylamino)methyl salvinorin A]	–	Ki ([1]; read-out: Ki): > 10 µM
COC(=O)[C@@H]1C[C@H](O)C(=O)C2[C@@]1(C)CC[C@H]1C(=O)O[C@H](c3ccoc3)C[C@]21C (some centres unmarked) [Compound 1, salvinorin B]	–	Emax [2]: 98%
COC(=O)[C@@H]1C[C@H](O)C(=O)C2[C@@]3(C)C[C@@H](c4ccoc4)OC(=O)[C@H]3CC[C@]21C (some centres unmarked) [Compound 5, Episalvinorin B]	–	Emax [2]: 102%
CN[C@@H]1C[C@@H](C(=O)OC)[C@]2(C)CC[C@H]3C(=O)O[C@H](c4ccoc4)C[C@]3(C)C2C1=O (some centres unmarked) [Compound 11, 2-(N-methylamino)-salvinorin]	> 10	–
COC(=O)[C@@H]1C[C@H](OC(=O)CN(C)C)C(=O)C2[C@@]1(C)CC[C@H]1C(=O)O[C@H](c3ccoc3)C[C@]21C (some centres unmarked) [Compound 12, 2-(2′-(N,N-dimethylamino)acetate) salvinorin B]	> 10	–
CCO[C@H]1C[C@@H](C(=O)OC)[C@]2(C)CC[C@H]3C(=O)O[C@H](c4ccoc4)C[C@]3(C)C2C1=O (some centres unmarked) [Compound 15, 2-ethoxy-salvinorin B]	–	Emax [2]: 103%
COC(=O)[C@@H]1C[C@H](OC(=O)[C@H](C)N)C(=O)C2[C@@]1(C)CC[C@H]1C(=O)O[C@H](c3ccoc3)C[C@]21C (some centres unmarked) [Compound 25]	> 10	–
COC(=O)[C@@H]1C[C@H](OC(=O)CNC(C)=O)C(=O)C2[C@@]1(C)CC[C@H]1C(=O)O[C@H](c3ccoc3)C[C@]21C (some centres unmarked) [Compound 26]	> 10	–
COC(=O)[C@@H]1C[C@H](OC(=O)CN(C)C)C(=O)C2[C@@]1(C)CC[C@H]1C(=O)O[C@H](c3ccoc3)C[C@]21C (some centres unmarked) [Compound 27]	> 10	–
CCOC(=O)C1CC(OC(C)=O)C(=O)C2C1(C)CCC1C(=O)OC(c3ccoc3)CC12C (centres unmarked) [Compound 33]	> 10	–
CCCCOC(=O)C1CC(OC(C)=O)C(=O)C2C1(C)CCC1C(=O)OC(c3ccoc3)CC12C (centres unmarked) [Compound 35]	> 10	–
CC(=O)OC1CC(C(=O)OCc2ccccc2)C2(C)CCC3C(=O)OC(c4ccoc4)CC3(C)C2C1=O (centres unmarked) [Compound 37]	> 10	–
CCCCCOC(=O)C1CC(OC(C)=O)C(=O)C2C1(C)CCC1C(=O)OC(c3ccoc3)CC12C (centres unmarked) [Compound 40]	> 10	–
CCCCCCCCOC(=O)C1CC(OC(C)=O)C(=O)C2C1(C)CCC1C(=O)OC(c3ccoc3)CC12C (centres unmarked) [Compound 42]	> 10	–
C#CCCOC(=O)C1CC(OC(C)=O)C(=O)C2C1(C)CCC1C(=O)OC(c3ccoc3)CC12C (centres unmarked) [Compound 53]	> 10	–

Molecule	Ki [1] [µM]	other results
CCCOC(=O)C1CC(OC(C)=O)C(=O)C2C1(C)CCC1C(=O)OC(c3ccoc3)CC12C (centres unmarked) [Compound 54]	> 10	–
C=CCOC(=O)C1CC(OC(C)=O)C(=O)C2C1(C)CCC1C(=O)OC(c3ccoc3)CC12C (centres unmarked) [Compound 56]	> 10	–
COC(=O)[C@@H]1C[C@@H](N(C)C(C)=O)C(=O)C2[C@@]1(C)CC[C@H]1C(=O)O[C@H](c3ccoc3)C[C@]21C (stereo partly drawn) [Compound 80, 2-epi-(N-methylacetamide)-salvinorin]	–	Emax [2]: 106%
CC(=O)OC1CC(C(=O)NC(C)C(=O)OCc2ccccc2)C2(C)CCC3C(=O)OC(c4ccoc4)CC3(C)C2C1=O (centres unmarked) [Compound 99]	> 10	–
CC(=O)OC1CC(C(=O)N2CCCC2C(=O)OCc2ccccc2)C2(C)CCC3C(=O)OC(c4ccoc4)CC3(C)C2C1=O (centres unmarked) [Compound 104]	> 10	–
CC(=O)OC1CC(C(=O)NC(Cc2cnc[nH]2)C(=O)OCc2ccccc2)C2(C)CCC3C(=O)OC(c4ccoc4)CC3(C)C2C1=O (centres unmarked) [Compound 105]	> 10	–
CCC(=O)OC1CC(C(=O)OC)C2(C)CCC3C(=O)OC(c4ccoc4)CC3(C)C2C1=O (stereo not drawn) [Compound 203b, 2-epi-salvinorin B propionate]	0.641 ± 0.122	–
CCCC(=O)OC1CC(C(=O)OC)C2(C)CCC3C(=O)OC(c4ccoc4)CC3(C)C2C1=O (stereo not drawn) [Compound 204b, 2-epi-salvinorin B butyrate]	0.665 ± 0.1	–
COC(=O)C1CC(OC)C(=O)C2C1(C)CCC1C(=O)OC(c3ccoc3)CC12C (stereo not drawn) [Compound 205b, 2-epi-(O-methyl)-salvinorin B]	> 10	–
CCOC1CC(C(=O)OC)C2(C)CCC3C(=O)OC(c4ccoc4)CC3(C)C2C1=O (stereo not drawn) [Compound 206b, 2-epi-(O-ethyl)-salvinorin B]	> 10	–
CCC(=O)N[C@H]1C[C@@H](C(=O)OC)[C@]2(C)CC[C@H]3C(=O)O[C@H](c4ccoc4)C[C@]3(C)[C@H]2C1=O [Compound 213a, 2-(propionamide)-salvinorin]	–	Emax [2]: 109%
CCC(=O)N[C@@H]1C[C@@H](C(=O)OC)[C@]2(C)CC[C@H]3C(=O)O[C@H](c4ccoc4)C[C@]3(C)[C@H]2C1=O [Compound 213b, 2-epi-(propionamide)-salvinorin]	–	Emax [2]: 102%
CCC(=O)N(C)C1CC(C(=O)OC)C2(C)CCC3C(=O)OC(c4ccoc4)CC3(C)C2C1=O (centres unmarked) [Compound 215a, 2-(N-methylpropionamide)-salvinorin]	0.0016 ± 0.0001	–
CCN(C(C)=O)[C@H]1C[C@@H](C(=O)OC)[C@]2(C)CC[C@H]3C(=O)O[C@H](c4ccoc4)C[C@]3(C)[C@H]2C1=O [Compound 216a, 2-(N-ethylacetamide)-salvinorin]	–	Emax [2]: 104%
CCN(C(C)=O)[C@@H]1C[C@@H](C(=O)OC)[C@]2(C)CC[C@H]3C(=O)O[C@H](c4ccoc4)C[C@]3(C)[C@H]2C1=O [Compound 216b, 2-epi-(N-ethylacetamide)-salvinorin]	–	Emax [2]: 95%
CCC(=O)N(CC)[C@H]1C[C@@H](C(=O)OC)[C@]2(C)CC[C@H]3C(=O)O[C@H](c4ccoc4)C[C@]3(C)[C@H]2C1=O [Compound 217a, 2-(N-ethylpropionamide)-salvinorin]	–	Emax [2]: 100%
CCC(=O)N(CC)[C@@H]1C[C@@H](C(=O)OC)[C@]2(C)CC[C@H]3C(=O)O[C@H](c4ccoc4)C[C@]3(C)[C@H]2C1=O [Compound 217b, 2-epi-(N-ethylpropionamide)-salvinorin]	–	Emax [2]: 96%
CNC(=O)[C@@H]1C[C@H](OC(C)=O)C(=O)[C@H]2[C@@]1(C)CC[C@H]1C(=O)O[C@H](c3ccoc3)C[C@]21C [Compound 219, C(4)-N-methylamide salvinorin A]	–	Ki ([1]; read-out: Ki): > 1 µM
CC(=O)OC1CC(C(=O)N(C)C)C2(C)CCC3C(=O)OC(c4ccoc4)CC3(C)C2C1=O (centres unmarked) [Compound 221, C(4)-N,N-dimethylamide salvinorin A]	> 10	–
CC(=O)O[C@H]1C[C@@H](CO)[C@]2(C)CCC3C(=O)O[C@H](c4ccoc4)C[C@]3(C)[C@H]2C1=O (some centres unmarked) [Compound 222, O-demethyl-18-deoxysalvinorin A]	> 10	–
